{"source": "ChEMBL document CHEMBL3507680", "about": "“University of Dundee, Gates Library screen for HepG2 cell viability”"}
{"assay": "Human HepG2 cell viability assay in 384 well format", "format": "toxicity, cell-based", "design": "dose 125 nL, time 70.5 hour; concentration not given beside the values", "conditions": "HepG2 cells, read-out: Inhibition", "units": {"cytotoxicity at 70.5 h": "%"}}
{"smiles": "COc1ccc(CNC(=O)N2CCOCC2C2CC2)cc1C", "note": "(stereo unspecified)", "cytotoxicity at 70.5 h": -3.69}
{"smiles": "COCCN1CC(Nc2nc(C(C)C)nc3c2cnn3C)CC1=O", "note": "(stereo unspecified)", "cytotoxicity at 70.5 h": -0.509}
{"smiles": "CCNC(=O)C1(Cc2cc(-c3ccc(C)cc3)no2)CCCN(C)C1", "note": "(stereo unspecified)", "cytotoxicity at 70.5 h": -5.63}
{"smiles": "CN(C)C(=O)c1ccc(CNC(=O)NCCN(C)C2CCCC2)cc1", "cytotoxicity at 70.5 h": -13}
{"smiles": "COCc1nc(CNc2cccc(-c3csc(C)n3)c2)cs1", "cytotoxicity at 70.5 h": -0.82}
{"smiles": "COCc1cn(C[C@H]2C[C@@H]3CCN2C[C@@H]3C(=O)N2CCOCC2)nn1", "cytotoxicity at 70.5 h": -3.96}
{"smiles": "CN(C)C(=O)c1nc(CN2CC(c3ccccc3)CC2=O)no1", "note": "(stereo unspecified)", "cytotoxicity at 70.5 h": 10.4}
{"smiles": "CCc1ncc2c(n1)CN(C(=O)c1c(C)[nH]c3c1C(=O)CCC3)C2", "cytotoxicity at 70.5 h": 1.67}
{"smiles": "Cc1cc(NC(=O)CNc2ccc(Br)cc2F)on1", "cytotoxicity at 70.5 h": 2.93}
{"smiles": "NC(=O)NCC(=O)N1C[C@H]2CC[C@@H]1CN(Cc1cscn1)C2", "cytotoxicity at 70.5 h": 9.8}
{"smiles": "CCc1nc(CN2CCCN(CC(=O)Nc3cccnc3)CC2)no1", "cytotoxicity at 70.5 h": 8.11}
{"smiles": "CC1(C)CN(CC(F)(F)F)CCN1CC(=O)N1CCCCC1", "cytotoxicity at 70.5 h": 11.7}
{"smiles": "COc1ccccc1-c1ccc(NCc2cn3c(n2)SCC3)nn1", "cytotoxicity at 70.5 h": -7.12}
{"smiles": "N#Cc1cccc(N2CCCC3(C2)CN(c2ncccn2)CCO3)n1", "note": "(stereo unspecified)", "cytotoxicity at 70.5 h": -6.81}
{"smiles": "O=C1CC[C@H]2[C@H](CCN2c2ccccn2)N1CC1CCOCC1", "cytotoxicity at 70.5 h": -9.84}
{"smiles": "CCN1CCN(c2ccccc2NC(=O)NCc2ccon2)CC1", "cytotoxicity at 70.5 h": -0.39}
{"smiles": "Cc1cc(C)n(C2CCN(S(=O)(=O)N3CCC(C)CC3)CC2)n1", "cytotoxicity at 70.5 h": -3.62}
{"smiles": "CNc1nc(CS(=O)(=O)c2ccccc2)cs1", "cytotoxicity at 70.5 h": -7.87}
{"smiles": "COc1cc(N(C)Cc2cc(C(C)(C)C)n[nH]2)ncn1", "cytotoxicity at 70.5 h": 17.2}
{"smiles": "Cc1cc2nc(O)c(O)nc2cc1S(=O)(=O)NC1CC1", "cytotoxicity at 70.5 h": -12.3}
{"smiles": "O=c1c2cc3c(cc2nnn1Cc1ccccc1Cl)OCCO3", "cytotoxicity at 70.5 h": 12.4}
{"smiles": "CC(C(=O)Nc1ccc(C#N)cc1)N1CCc2ccccc21", "note": "(stereo unspecified)", "cytotoxicity at 70.5 h": 43.4}
{"smiles": "CC(C)N(C)C(=O)C1CSCN1S(=O)(=O)c1ccccc1F", "note": "(stereo unspecified)", "cytotoxicity at 70.5 h": -9.21}
{"smiles": "CN(Cc1nccn1C)S(=O)(=O)c1cccc(C#N)c1", "cytotoxicity at 70.5 h": -1.58}
{"smiles": "CCN(CC1CCCO1)C(=O)Nc1cc(C)ccc1S(C)(=O)=O", "note": "(stereo unspecified)", "cytotoxicity at 70.5 h": -1.66}
{"smiles": "COc1ccc(C2CC(=O)Nc3c2cnn3C2CCCC2)cc1", "note": "(stereo unspecified)", "cytotoxicity at 70.5 h": -11.1}
{"smiles": "O=C1CC(N(C(=O)c2ccc(-n3cccc3)cc2)C2CC2)C(=O)N1", "note": "(stereo unspecified)", "cytotoxicity at 70.5 h": -4.68}
{"smiles": "CCn1cnnc1C1CCN(C(=O)CC(C)n2cccc2)CC1", "note": "(stereo unspecified)", "cytotoxicity at 70.5 h": -1.21}
{"smiles": "Cc1ccc2nc(-c3nc4c([nH]3)CC(C)(C)CNC4=O)cn2c1", "cytotoxicity at 70.5 h": 7.51}
{"smiles": "CCn1cc(S(=O)(=O)N2CCN(C(=O)c3cc(Br)cs3)CC2)c(C)n1", "cytotoxicity at 70.5 h": 21.7}
{"smiles": "CN(CCc1ccccn1)C(=O)c1ccccc1F", "cytotoxicity at 70.5 h": -4.18}
{"smiles": "COc1nc2ccn(CCc3scnc3C)c(=O)c2cc1C#N", "cytotoxicity at 70.5 h": -4.15}
{"smiles": "COc1ccc(OC)c(NC(=O)c2cc3c([nH]c2=O)CCCC3=O)c1", "cytotoxicity at 70.5 h": -4.78}
{"smiles": "c1cc(CN2CCc3ncnc(C4CCOC4)c3CC2)ccn1", "note": "(stereo unspecified)", "cytotoxicity at 70.5 h": -6.5}
{"smiles": "CN(CC(=O)NCCC#N)C(c1ccccc1)c1ccccc1", "cytotoxicity at 70.5 h": -14.5}
{"smiles": "Cc1ccccc1-c1noc(CN2CCC(c3ccn[nH]3)CC2)n1", "cytotoxicity at 70.5 h": 30.9}
{"smiles": "CCS(=O)(=O)c1ccccc1C(=O)N1CCCC(n2cccn2)C1", "note": "(stereo unspecified)", "cytotoxicity at 70.5 h": 18.2}
{"smiles": "COCCN1CCC2(CC1)CC(Nc1ccc(C)nn1)CO2", "note": "(stereo unspecified)", "cytotoxicity at 70.5 h": -2.32}
{"smiles": "CC(=O)NC(C)(C)c1noc(C2(C#N)CCCCC2)n1", "cytotoxicity at 70.5 h": -3.45}
{"smiles": "CCCNC(=O)c1nc2c(o1)CN(c1ncccn1)C2", "cytotoxicity at 70.5 h": -2.16}
{"smiles": "CCn1cc(-c2cc(C(F)F)n3nc(CC(=O)O)nc3n2)cn1", "cytotoxicity at 70.5 h": 0.375}
{"smiles": "CN(C)c1ccc(NC(=O)C2CN(Cc3ccccc3)CCO2)cn1", "note": "(stereo unspecified)", "cytotoxicity at 70.5 h": -3.21}
{"smiles": "CN(C)Cc1cnc(C2CCN(C(=O)c3ccc(F)cc3)C2)[nH]1", "note": "(stereo unspecified)", "cytotoxicity at 70.5 h": -6.91}
{"smiles": "Cc1cc2nc(C(C)C)cc(N3CCC(Oc4ncccn4)CC3)n2n1", "cytotoxicity at 70.5 h": 48.7}
{"smiles": "Cc1ncc(CNc2cnccc2CO)s1", "cytotoxicity at 70.5 h": 6.67}
{"smiles": "O=C(c1ccncc1F)N1CCc2onc(COc3cccnc3)c2C1", "cytotoxicity at 70.5 h": -6.64}
{"smiles": "N#CC1(C(=O)N2CCCN(c3nccs3)CC2)CCCC1", "cytotoxicity at 70.5 h": -11}
{"smiles": "Cc1cc2n(n1)CC(CNCc1ccc(N3CCOCC3)nc1)CN2", "note": "(stereo unspecified)", "cytotoxicity at 70.5 h": -9.07}
{"smiles": "Cc1nn(CCO)c(C)c1CNC1CCCCc2ccccc21", "note": "(stereo unspecified)", "cytotoxicity at 70.5 h": 3.84}
{"smiles": "CCC(=O)NCC(=O)Nc1c(C)cnn1Cc1cc(F)ccc1F", "cytotoxicity at 70.5 h": -5.16}
{"smiles": "COC(=O)c1c(Cl)c(C)nc2onc(C)c12", "cytotoxicity at 70.5 h": -9.83}
{"smiles": "Cc1nc(CN2CCC3(CCN(Cc4cnn(C)c4)CC3)C2=O)cs1", "cytotoxicity at 70.5 h": 10.4}
{"smiles": "CN(C)Cc1nn(C)c2c1CN(C(=O)Nc1cccc(F)c1)C2", "cytotoxicity at 70.5 h": -2.91}
{"smiles": "COC(=O)c1ccc(C(=O)NCc2ccc(Br)cc2)cn1", "cytotoxicity at 70.5 h": -2.31}
{"smiles": "Cc1ccc(C#N)cc1NC(=O)NC1CCCN(c2ncccn2)C1", "note": "(stereo unspecified)", "cytotoxicity at 70.5 h": -0.699}
{"smiles": "CCS(=O)(=O)N1CCc2onc(COc3ccccn3)c2C1", "cytotoxicity at 70.5 h": -3.32}
{"smiles": "O=C(c1ccc(O)cc1)N1C[C@@H]2CCN(c3cccnc3)C[C@@H]2C1", "cytotoxicity at 70.5 h": 22.7}
{"smiles": "CCc1c(C(=O)N2CCCN(C(C)=O)CC2)cnn1C(C)(C)C", "cytotoxicity at 70.5 h": -0.109}
{"smiles": "O=C1NCCCC1NC(=O)C1(c2cccc(Cl)c2)CCC1", "note": "(stereo unspecified)", "cytotoxicity at 70.5 h": -0.27}
{"smiles": "CC(C)(C)C(C#N)NC(=O)c1ccc(Oc2cccnc2)cc1", "note": "(stereo unspecified)", "cytotoxicity at 70.5 h": -8.31}
{"smiles": "O=C(c1ccncc1)N1CC[C@@H](O)[C@@H](O)[C@H](N2CCC(F)(F)CC2)C1", "cytotoxicity at 70.5 h": -0.846}
{"smiles": "CC(C)CC(=O)NS(=O)(=O)c1ccc(C#N)cc1C(F)(F)F", "cytotoxicity at 70.5 h": -3.13}
{"smiles": "CCOCc1cnc2n1CCN(Cc1scnc1C)C2C", "note": "(stereo unspecified)", "cytotoxicity at 70.5 h": -3.25}
{"smiles": "Cc1cc(C2CCCN(C(=O)COc3cccc(F)c3)C2)n[nH]1", "note": "(stereo unspecified)", "cytotoxicity at 70.5 h": -5.26}
{"smiles": "O=C(CN1CCCC(c2ccc(C(=O)O)cc2)C1)NC1CC1", "note": "(stereo unspecified)", "cytotoxicity at 70.5 h": -5.55}
{"smiles": "Cc1cccc(-n2ncc3c2CCCC3NCC(C)(C)CO)c1C", "note": "(stereo unspecified)", "cytotoxicity at 70.5 h": -10.7}
{"smiles": "CC(C)NC(=O)CNC(C)c1c(F)cccc1Cl", "note": "(stereo unspecified)", "cytotoxicity at 70.5 h": -79.9}
{"smiles": "O=C(NCc1cccnc1)[C@@H]1C[C@H]2[C@H](CCN2c2ncccn2)O1", "cytotoxicity at 70.5 h": -3}
{"smiles": "CCN(CC)[C@H]1C[C@@H](Cc2cc(CO)on2)C1(C)C", "cytotoxicity at 70.5 h": -7.1}
{"smiles": "CCc1nc(-c2ccc(C(=O)N3CCC4(CC3)OCCO4)cc2)no1", "cytotoxicity at 70.5 h": -21.2}
{"smiles": "CCCN1CC2(CCN(c3ccc(C(C)=O)cn3)CC2)CC1C(=O)O", "note": "(stereo unspecified)", "cytotoxicity at 70.5 h": -9.66}
{"smiles": "COc1ccc(OCCc2nnc(NC(C)=O)s2)cc1", "cytotoxicity at 70.5 h": -4.39}
{"smiles": "COc1ccc(NC(C)c2nnnn2-c2ccccc2)cn1", "note": "(stereo unspecified)", "cytotoxicity at 70.5 h": -96.1}
{"smiles": "NC(=O)c1cccc2nc([C@H]3CCN(Cc4ccccn4)C3)[nH]c12", "cytotoxicity at 70.5 h": -0.598}
{"smiles": "Cc1ncc(C(=O)N2CCCCC2c2nc3cc(F)ccc3[nH]2)c(O)n1", "note": "(stereo unspecified)", "cytotoxicity at 70.5 h": -20}
{"smiles": "COc1cccc([C@@]2(O)CC[C@@H]3CN(C(=O)c4c[nH]nc4C)C[C@@H]32)c1", "cytotoxicity at 70.5 h": -6.08}
{"smiles": "CCCC(C)CN1CCC(n2cc(C3CCCC3)nn2)CC1", "note": "(stereo unspecified)", "cytotoxicity at 70.5 h": -6.08}
{"smiles": "CN(C)Cc1nn(C)c2c1CN(C(=O)Nc1ccc(F)cc1)C2", "cytotoxicity at 70.5 h": -3.55}
{"smiles": "CCC[C@@H]1CN(Cc2cc(OC)c3c(c2)OCO3)C[C@H]1C(=O)O", "cytotoxicity at 70.5 h": -2.82}
{"smiles": "Cc1csc(CCNCc2cnc3c(c2)c(C)nn3C)n1", "cytotoxicity at 70.5 h": 5.91}
{"smiles": "COC(=O)C1CCN(C(=O)Cn2ccc(-c3ccccc3)n2)CC1", "cytotoxicity at 70.5 h": -10.6}
